What was measured:
[1] = system: bio-indicator organisms (Zygosaccharomyce baili, Brettanomyces species, Saccharomyces cerevisiae, Paecilomyces lilacinus, Zygosaccharomyces bisporus …); assay: Example 4: efficacy of DMDC alone in commercial product types and apple juice medium, 16 weeks; format: cell-based
Procedure: The efficacy of DMDC in a range of existing commercial product types was established in order to establish a baseline for future testing of products in development. A separate test of efficacy of DMDC alone in the test apple juice medium is used in comparison. Simply, four different products that are packaged without preservatives (aseptic package) were purchased from local markets.
The base test beverage formulation (Apple Juice Medium) was prepared as in other tests herewithin, and consisted of 4% apple juice, 68 g sucrose/L, 52 g glucose/L, 2 g fructose/L prepared in batch water that was formulated to 90 ppm hardness with calcium chloride and magnesium chloride. A pH of 3.4 was achieved through combinations of malic acid and sodium malate
Product was transferred to test vessels and vessels were inoculated with bio-indicator organisms. Immediately after inoculation, the test vessels were sealed with septum seal that allowed dosing of DMDC by Hamilton syringe. Dimethyl dicarbonate stock solution consisted of 1 ml of dimethyl dicarbonate (1.25 g) in 49 ml of 100% ethanol (25 mg/ml). […] After dosing with DMDC, the content of each test vessel was immediately mixed by vortex mixing. All testing was performed at ambient and test solutions were at ambient. […]

[2] = system: bio-indicator organisms; mold strains M1 (Paecilomyces/Byssochalmys nieva) and M6 (Talaromyces flavus var. flavus); assay: Example 6: growth/no growth in enhanced water product pH 4.5, 16 weeks; format: cell-based; settings: FIG. 5a; enhanced water pH 4.5; DMDC singular antimicrobial agent
Procedure: A single preparation of base beverage was employed to prepare each of five tests. The beverage formulation chosen mimics that of an enhanced water product and is composed per liter as follows 37.2 mg Acesulfame K+; 100mg Vitamin E acetate, 54.1 mg Vitamin B mix, 331 mg sucralose 748 mg grape flavor, 3236 mg of liquid sucrose, 26.5 mg antifoam, 20 mg polysorbate. The ingredients were added to RO water adjusted to 90 ppm hardness with calcium chloride and magnesium chloride. The acidity of the product was adjusted to pH 4.5 with a mixture of succinic acid and Sodium succinate dibasic hexadydrate. The total concentration of succinic acid in solution was approximately 8 mM.
Each of the five tests employed the same bio-indicator organisms; Growth (+) versus no growth (−) established by visual inspection or spectrophotometrically. The organisms and the key (code) employed in FIGS. 5a-5e are as follows: Spores, M1 Paecilomyces/Byssochalmys nieva, Pespi isolate D16; C-7UP, Brettanomyces species, Pepsi Isolate; Spores, M6, Talaromyces flavus var. flavus ATCC 10512; Brettanomyces species, Pepsi isolate H202; Acetobacter species, Pepsi isolate “Atlanta”; an ascospore preparation of Saccharomyces cerevisiae strain 99(Spore) and Y3, Zygosaccharomyce baili, Pepsi isolate 906;. Samples were incubated for period of 16 weeks at 25° C. in vessels protective against evaporation. […]

[3] = Example 8: growth/no growth in energy beverage pH 2.85, 16 weeks; format: cell-based; settings: pH 2.9, read-out: minimum inhibitory concentration of DMDC required to preserve
Procedure: A single preparation of base beverage was employed to prepare each of five tests. The beverage formulation chosen mimics that of a Energy beverage and is composed per liter as follows: 209 mg Rebaudioside A (REB A), 248 mg Potassium Citrate 248 mg Flavor-vitamin mixture, 248 mg calcium lactate, 298 mg Xanthan gum, 668 mg citric acid 995 mg color, 995 mg Pomegranate flavor, 24900 mg erythritol. The ingredients were added to RO water adjusted to 90 ppm hardness with calcium chloride and magnesium chloride. The acidity of the product was adjusted to pH 2.85 with a mixture of citric acid and sodium citrate.
Each of the five tests employed the same bio-indicator organisms; Growth (+) versus no growth (−) established by visual inspection or spectrophotometrically. The organisms and the key (code) employed in FIGS. 7a-7e are as follows: Spores, M1 Paecilomyces/Byssochalmys nieva, Pespi isolate D16; C-8UP, Brettanomyces species, Pepsi Isolate; M6, Talaromyces flavus var. flavus ATCC 10512; Brettanomyces species, Pepsi isolate H2O2; Spores, M12 Penicillium camebertii (Pepsi isolate D1)”; an ascospore preparation of Saccharomyces cerevisiae strain 99(Spore) and Y3, Zygosaccharomyce baili Pepsi isolate 906;. Samples were incubated for period of 16 weeks at 25° C. in vessels protective against evaporation. The results are depicted in FIGS. 7a-7e.

[4] = system: bio-indicator organisms; mold strains M1 (Paecilomyces/Byssochalmys nieva) and M6 (Talaromyces flavus var. flavus); assay: Example 7: growth/no growth in green tea beverage pH 5.5, 16 weeks; format: cell-based; settings: pH 5.5, read-out: minimum inhibitory concentration of DMDC required to preserve
Procedure: A single preparation of base beverage was employed to prepare each of five tests. The beverage formulation chosen mimics that of a green tea beverage composed per liter as follows: 170 mg Citrus Pectin; 500 mg honey granules 550 mg Acerola Dry Vitamin C, 1,332 mg green tea solid, 2,046 mg tea flavor; 65,590 mg granulated sucrose. The ingredients were added to RO water adjusted to 90 ppm hardness with calcium chloride and magnesium chloride. The acidity of the product was adjusted to pH 5.5 with a mixture of succinic acid and sodium succinate dibasic hexadydrate. The total concentration of succinic acid in solution was approximately 8 mM.
Each of the five tests employed the same bio-indicator organisms; Growth (+) versus no growth (−) established by visual inspection or spectrophotometrically. The organisms and the key (code) employed in FIGS. 6a-6e are as follows: Spores, M1 Paecilomyces/Byssochalmys nieva, Pespi isolate D16; C-7UP, Brettanomyces species, Pepsi Isolate; Spores, M6, Talaromyces flavus var. flavus ATCC 10512; Brettanomyces species, Pepsi isolate H202; Acetobacter species, Pepsi isolate “Atlanta”; an ascospore preparation of Saccharomyces cerevisiae strain 99(Spore) and Y3, Zygosaccharomyce baili, Pepsi isolate 906;. Samples were incubated for period of 16 weeks at 25° C. in vessels protective against evaporation. The results are depicted in FIGS. 6a-6e.

[5] = system: vegetative forms of yeast, mold, and bacteria; settings: reported by the manufacturer of DMDC; cited from earlier work
[6] = system: bio-indicator organisms (Zygosaccharomyce baili, Brettanomyces species, Saccharomyces cerevisiae, Paecilomyces lilacinus, Zygosaccharomyces bisporus …); settings: FIG. 2a; absence of cinnamic acid; pH 3.4; 16 weeks
From the text: A single preparation of base beverage was employed to prepare each of five tests and consisted of 4% apple juice, 68 g sucrose/L, 52 g glucose/L, 2 g fructose/L prepared in batch water that was formulated to 90 ppm hardness with calcium chloride and magnesium chloride. A pH of 3.4 was achieved through combinations of malic acid and sodium malate for all preparations regardless of the presence or absence of lauric arginate or cinnamic acid. The total combined quantity of sodium malate and malic acid was near constant, but the ratio of malic acid and malate varied slightly given the presence or absence of lauric arginate or cinnamic acid. […] Where required, lauric arginate or cinnamic acid was supplemented from separately prepared stock solutions. Dimethyl dicarbonate was delivered by means of hypodermic needle (Hamilton syringe) through septum that sealed the test vessel against loss of moisture. Dimethyl dicarbonate stock solution consisted of 1 ml of dimethyl dicarbonate (1.25 g) in 49 ml of 100% ethanol (25 mg/ml).
Each of the five tests employed the same bio-indicator organisms; Growth (+) versus no growth (−) established by visual inspection or spectrophotometrically. […]

[7] = system: mold spores (Byssochlamyus nieva and Paecilomyces variotti); assay: Germination of bio-indicator mold spores with ascorbic acid and potassium sorbate; format: cell-based
From the text: Ascorbic acid may be incorporated as part of the microbiological chemical preservation system. Ascorbic acid is not generally considered an antimicrobial. Instead, ascorbic acid is understood to “preserve” food ingredients against oxidation. In this respect, ascorbic acid is understood to be “anti-oxidant” preservative.

## COC(=O)OC(=O)OC [DMDC, dimethyl dicarbonate]
[1]; commercial tea beverage (pH 3.3) with honey, DMDC 2.61 mM (350 ppm)
  stability against spoilage: unstable against spoilage
[1]; green tea formulation containing lemon flavor, DMDC alone
  DMDC concentration that stabilized the formulation: 0.75 mM
[2]
  concentration of DMDC tolerated by M1 and M6: ≥ 200 ppm
[3]
  MIC: < 125 µg/mL
[4]
  MIC: > 225 µg/mL
[5]
  concentration required to stabilize beverage for 16 weeks: at least 250 mg/liter
[6]
  DMDC required to inhibit the growth of all bio-indicator organisms: 0.95 mM

## C/C=C/C=C/C(=O)[O-].[K+] [Potassium sorbate, Potassium Sorbate, reference compound]
[7]; Potassium sorbate alone at concentrations below 200 ppm
  prevention of spore germination: unable to prevent spore germination

## O=C1O[C@H]([C@@H](O)CO)C(O)=C1O [ascorbic acid]
[7]; ascorbic acid alone at 400 ppm
  effect on spore germination: able to retard germination

Source: patent US20100151104A1, “Preservative System For Beverages Based On Combinations Of Trans-Cinnamic Acid, Lauric Arginate, And Dimethyl Dicarbonate” (priority 2008, published 2010)
